One series has as its system mice. Put plainly: In vivo delivery of pGL4 plasmid DNA, intramuscular administration, bioluminescence imaging. The conditions noted are these: IM, 2.5 μg pGL4 plasmid. Here is the method: FIGS. 7A-7B show the potency of ADGN-peptide variants for in vivo delivery of Luciferase expressing plasmid pGL4 via intramuscular administration in mice. ADGN-peptide/pGL4 luc particles containing 2.5 μg plasmid DNA were formed in sterile water, and then diluted in 5% sucrose. Mice received IV injection of 25 μl ADGN-peptide/pGL4 complexes. Luciferase expression was monitored by bioluminescence imaging after 12 h, 24 h and 48h (A). FIG. 7B show bioluminescence imaging at 24 hr in control and treated groups.
Stable ADGN-peptides/pGL4.11 DNA were evaluated for in vivo delivery of Luciferase mRNA via intravenous and intramuscular administrations. Animals were treated with single dose of pGL4.11 plasmid DNA of 5 μg. via IV and 2.5 μg via intramuscular administration.
For IM administration, mice received 25 μl (2.5 μg of pGL4 plasmid) IV injection of either ADGN-100/PGL4, ADGN-106/PGL4, ADGN-100RI/PGL4, ADGN-100hydro1/PGL4, ADGN-100hydro6/PGL4, ADGN-100 stearyl/PGL4 or ADGN-100/PGL4 complexes containing 10% or 20% of ADGN-100PEG (2 animals per group). As control, mice from group 3 (2 animals per group) received IV injection of 25 μl of naked PGL4 plasmid (2.5 μg).
Luciferase expression was monitored by bioluminescence. Bioluminescence imaging was performed after 12, 24, 48 and 72 hrs. Mice received an i.p. injection of 150 μg/g luciferin for noninvasive bioluminescence imaging (IVIS Kinetic; PerkinElmer, Waltham, MA, USA).

In the next series the test system is mice or rat models. Kind of series: Summary of cargo delivery to targeted organ (Table 1). Type of series: in vivo. From the text:
Table 1 lists a summary of cell-penetrating peptides that have been proven successful in delivering various cargo molecules to on or more targeted organ (e.g., by intravenous (IV), intramuscular (IM), or subcutaneous (SQ) administration, or intratraccheal instillation or nebulization (NB)) in mice or rat models.

The nature of series [1]: DLS particle size and level of aggregation of ADGN-peptide/pGL4 plasmid DNA complexes. In kind it is physicochemical. To be noted: pGL4 5.6 kb plasmid. Here is the method: (§1) Complex formation with plasmid DNA. The following protocols were used for the transfection of 2-5 106 Cells or Cells at confluency of about 70-80% cultured in 24 well plates. ADGN peptide/plasmid DNA pGL4 particles were prepared at a 20:1 molar ratio of ADGN-Peptide/pGL4. using (0.2 μg). PGL4 plasmid (0.15 μg) was diluted in 20 μl of sterile water (GIBCO) at room temperature. 10 μl Final Peptide Solution was added to obtain a total volume of 20 μl. The volume was adjusted to 50 μl with sterile water and was mixed gently with vortex 1 min low speed and incubated 30 min at room temperature. Then the volume was made up to 100 μl by adding sterile water containing 5% sucrose, and the solution was mixed gently with vortex 1 min low speed and incubate 5 min at 37° C. and then was proceeded to cell transfection.
The ability of the different ADGN-peptides to form stable nanoparticles with DNA pGL4 a 5.6KpB plasmid expression Luciferase was analyzed. The particle sizes and level of aggregation were measured on DLS NanoZS (Malvern Ltd). The mean size and the polydispersity of the ADGN/plasmid DNA complexes were determined at 25° C. for 3 minute per measurement. In order to remove large particles, ADGN/plasmid DNA complexed were filtered using either PES or PVDF 0.45 μm filters. Data are shown in FIG. 10 for a mean of 3 separate experiments.

Series [2] in a line: DLS particle size and level of aggregation of ADGN-peptide/mRNA complexes. Type of series: physicochemical. The conditions noted are these: retro inverso modification vs parent peptide. As to the method: as §1, with “with mRNA.” for “with plasmid DNA.”, “ADGN peptide/mRNA” for “ADGN peptide/plasmid DNA pGL4”, “of ADGN-Peptide/mRNA.” for “of ADGN-Peptide/pGL4.”, “using (0.25 μg) mRNA. Luc mRNA (0.25” for “using (0.2 μg). PGL4 plasmid (0.15”, “temperature. 5” for “temperature. 10”
The ability of the different ADGN-peptides to form stable nanoparticles with mRNA was analyzed. The particle sizes and level of aggregation were measured on DLS NanoZS (Malvern Ltd). The mean size and the polydispersity of the ADGN/mRNA complexes were determined at 25° C. for 3 minute per measurement. In order to remove large particles, ADGN/mRNA complexed were filtered using either PES or PVDF 0.45 μm filters. Data are shown in FIG. 8 and FIG. 9 for a mean of 3 separate experiments.

Setting [3] is: cargoes and route (IV, IM, SQ, NB) per peptide as listed in Table 1.

From US12357695B2, “Peptides and nanoparticles for intracellular delivery of molecules” (AADIGEN, LLC, priority 2019, dated 2025) come the findings set out here.

Entries after “also recorded” stand apart in the source; their conditions may differ. Square brackets hold non-standard residues; d marks the D form. Ends that are not written are not given here. Stearyl = stearyl group covalently linked to the N-terminus; Aun = NCCCCCCCCCCC(=O)O; βAla = NCCC(=O)O

As to “Ac-GYVS-(G)4-KWRSALWRWRLWRVRSWSR-NH2 (Ac-GYVSGGGGKWRSALWRWRLWRVRSWSR-NH2) [ADGN-100 hydro-2]”, the luciferase expression result with mice is given as “no significant expression”.
Still for that read-out and setting: with “Ac-GYVS-Aun-KWRSALWRWRLWRVRSWSR-NH2 (Ac-GYVS[Aun]KWRSALWRWRLWRVRSWSR-NH2; SMILES CC(=O)NCC(=O)N[C@@H](Cc1ccc(O)cc1)C(=O)N[C@H](C(=O)N[C@@H](CO)C(=O)NCCCCCCCCCCC(=O)N[C@@H](CCCCN)C(=O)N[C@@H](Cc1c[nH]c2ccccc12)C(=O)N[C@@H](CCCNC(=N)N)C(=O)N[C@@H](CO)C(=O)N[C@@H](C)C(=O)N[C@@H](CC(C)C)C(=O)N[C@@H](Cc1c[nH]c2ccccc12)C(=O)N[C@@H](CCCNC(=N)N)C(=O)N[C@@H](Cc1c[nH]c2ccccc12)C(=O)N[C@@H](CCCNC(=N)N)C(=O)N[C@@H](CC(C)C)C(=O)N[C@@H](Cc1c[nH]c2ccccc12)C(=O)N[C@@H](CCCNC(=N)N)C(=O)N[C@H](C(=O)N[C@@H](CCCNC(=N)N)C(=O)N[C@@H](CO)C(=O)N[C@@H](Cc1c[nH]c2ccccc12)C(=O)N[C@@H](CO)C(=O)N[C@@H](CCCNC(=N)N)C(N)=O)C(C)C)C(C)C) [ADGN-100 hydro-6]” the entry was “mediated Luciferase expression following IM administration”.
Consider “Stearyl-βA-KWRSALWRWRLWRVRSWSR-NH2 (Stearyl-[βAla]KWRSALWRWRLWRVRSWSR-NH2; not fully specified; printed as Stearyl-βA-KWRSALWRWRLWRVRSWSR-NH2) [ADGN-100 Stearyl]”, for which, in the series with mice or rat models (setting [3]), the “Targeted Organ” value is “Lung/Liver/; also recorded: Kidney/Pancreas”.
On to “akwllrwlsrwlrwlarwlr ([dA][dK][dW][dL][dL][dR][dW][dL][dS][dR][dW][dL][dR][dW][dL][dA][dR][dW][dL][dR]; also: retro-inverso) [ADGN-106-RI]”, for which the “Targeted Organ” value in the series with mice or rat models (setting [3]) is given as “Liver/Lung”. Further, the “ability to form stable nanoparticles/complex with plasmid DNA” value in series [1] is “did not improve the potency of ADGN-106 to form stable particle with plasmid”. In series [2], the “ability of the peptide to form stable complex with mRNA” value was “did not modify the ability of the peptide to form stable complex with mRNA”.
On to “rswsrvrwlrwrwgasrwk ([dR][dS][dW][dS][dR][dV][dR][dW][dL][dR][dW][dR][dW]G[dA][dS][dR][dW][dK]; also: retro-inverso) [ADGN-100-RI]”, for which, in the series on mice or rat models (setting [3]), the “Targeted Organ” value is “Liver/Lung/; also recorded: Kidney/Spleen”. Besides, the “ability to form stable nanoparticles/complex with plasmid DNA” value in series [1] is on record as “did not modifie the ability of the peptide to form stable complex with plasmid DNA”. For the same substance, in the series with mice, the “increase of luciferase expression in the muscle / efficiency relative to ADGN-100” value came out at 6 fold and the luciferase expression result was “mediated Luciferase expression following IM administration”. The “ability of the peptide to form stable complex with mRNA” value in series [2] is on record as “did not modify the ability of the peptide to form stable complex with mRNA”.
With “βAKWRSAGWRWRLW RVRSWSR (AKWRSAGWRWRLWRVRSWSR; N-terminal beta-alanine; VARIANT 1 beta-A) [ADGN-100]”, the “Targeted Organ” value with mice or rat models (cargoes and route (IV, IM, SQ, NB) per peptide as listed in Table 1, listed as ADGN-100a) was “Lung/Liver/; also recorded: Kidney/Pancreas”. The luciferase expression result in the series with mice is recorded as “mediated Luciferase expression following IM administration”.
Turning to “βALWRALWRLWRSLWRLLWKA ([βAla]LWRALWRLWRSLWRLLWKA) [ADGN-106]”, the “Targeted Organ” value in the series on mice or rat models (setting [3]) was “Liver/Lung”. For the same substance, in series [1], the “ability to form stable nanoparticles/complex with plasmid DNA” value was “large size and a the poor stability”. Besides, in the series with mice, the luciferase expression entry is recorded as “no significant expression”.
